# Reference: ChEMBL document CHEMBL1201862, “PubChem BioAssay data set” (2004)
# Activity calls are given as the source filed them.
# What was measured:
# [1] = biological target: T1, Beta-lactamase (Pseudomonas aeruginosa, UniProt Q79MP6); assay: […] counterscreen for selective VIM-2 inhibitors: dose response biochemical high throughput screening assay to identify inhibitors of IMP-1 metallo-beta-lactamase.
# [2] = biological target: T1, Beta-lactamase; assay: inhibition of IMP-1 beta-lactamase activity – biochemical, epi-absorbance, selectivity assay for VIM-2 inhibitor project, dose response (AID 1920)
# [3] = biological target: Beta-lactamase (Salmonella choleraesuis (strain SC-B67), UniProt Q5J463); assay: Epi-absorbance-based counterscreen for selective VIM-2 inhibitors: dose response biochemical high throughput screening assay to identify inhibitors of TEM-1 serine-beta-lactamase.
# [4] = general mammalian cell viability loss – activator set, cherry-pick, cytotoxicity control for miR-122 modulator project, dose response (AID 720690); type: functional, cell-based;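 further: HEK293T human cells scored for general mammalian cytotoxicity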
# [5] = activation of miR-122 Renilla sensor silencing – cell-based, Huh7 psiCHECK-miR122, Renilla luciferase, cherry-picked, dose response (AID 651956); type: functional;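 further: huh7 hepatoma cells stably carrying a psiCHECK-2 miR-122 sensor plasmid; renilla luciferase signal reporting endogenous miR-122 activity after 48 h compound exposure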
# [6] = biological target: Histone-lysine N-methyltransferase NSD2 (Homo sapiens, UniProt O96028); type: biochemical
# [7] = biological target: Tyrosyl-DNA phosphodiesterase 2 (Homo sapiens, UniProt O95551); assay: potency against TDP2 phosphodiesterase activity – biochemical, epi absorbance, IC50, dose response (AID 743297)
# [8] = biological target: T2, Protein skinhead-1 (Caenorhabditis elegans, UniProt P34707); type: functional
# T2 sequence (P34707 whole entry): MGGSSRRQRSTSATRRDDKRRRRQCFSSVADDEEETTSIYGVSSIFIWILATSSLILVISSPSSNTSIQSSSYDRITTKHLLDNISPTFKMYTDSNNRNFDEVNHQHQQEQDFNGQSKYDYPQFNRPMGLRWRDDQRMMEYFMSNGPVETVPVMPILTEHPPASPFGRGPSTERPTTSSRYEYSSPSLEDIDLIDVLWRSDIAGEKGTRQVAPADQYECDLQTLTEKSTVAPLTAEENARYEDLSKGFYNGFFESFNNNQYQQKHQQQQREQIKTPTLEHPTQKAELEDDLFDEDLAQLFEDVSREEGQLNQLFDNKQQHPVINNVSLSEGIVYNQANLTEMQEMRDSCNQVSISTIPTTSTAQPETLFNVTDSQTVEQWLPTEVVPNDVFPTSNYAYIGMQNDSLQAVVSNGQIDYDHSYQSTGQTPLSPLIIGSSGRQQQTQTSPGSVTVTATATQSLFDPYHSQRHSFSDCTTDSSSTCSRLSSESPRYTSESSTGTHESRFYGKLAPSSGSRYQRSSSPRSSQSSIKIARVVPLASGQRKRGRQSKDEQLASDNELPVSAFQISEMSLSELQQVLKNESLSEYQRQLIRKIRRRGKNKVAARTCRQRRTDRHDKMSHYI
# [9] = viability loss in HeLa cells – cytotoxicity control for MgcRacGAP inhibitor project, dose response (AID 624300); type: functional
# [10] = biological target: Eukaryotic translation initiation factor 4H (Homo sapiens, UniProt Q15056); assay: eIF4H binding inhibition – biochemical, uHTS, fluorescence polarization, translation initiation inhibitor project, primary screen (AID 2012)
# [11] = biological target: Nonstructural protein 1 (Influenza A virus, UniProt Q194T2); type: functional, Influenza A virus (A/California/07/2009(H1N1))
# [12] = biological target: T3, Rac GTPase-activating protein 1 (Homo sapiens, UniProt Q9H0H5); assay: blockers of MgcRacGAP-driven Rac1 GTP hydrolysis – biochemical, ADP Hunter fluorescence, primary and confirmatory, confirmation (AID 624330); type: functional
# T3 sequence (Q9H0H5 whole entry): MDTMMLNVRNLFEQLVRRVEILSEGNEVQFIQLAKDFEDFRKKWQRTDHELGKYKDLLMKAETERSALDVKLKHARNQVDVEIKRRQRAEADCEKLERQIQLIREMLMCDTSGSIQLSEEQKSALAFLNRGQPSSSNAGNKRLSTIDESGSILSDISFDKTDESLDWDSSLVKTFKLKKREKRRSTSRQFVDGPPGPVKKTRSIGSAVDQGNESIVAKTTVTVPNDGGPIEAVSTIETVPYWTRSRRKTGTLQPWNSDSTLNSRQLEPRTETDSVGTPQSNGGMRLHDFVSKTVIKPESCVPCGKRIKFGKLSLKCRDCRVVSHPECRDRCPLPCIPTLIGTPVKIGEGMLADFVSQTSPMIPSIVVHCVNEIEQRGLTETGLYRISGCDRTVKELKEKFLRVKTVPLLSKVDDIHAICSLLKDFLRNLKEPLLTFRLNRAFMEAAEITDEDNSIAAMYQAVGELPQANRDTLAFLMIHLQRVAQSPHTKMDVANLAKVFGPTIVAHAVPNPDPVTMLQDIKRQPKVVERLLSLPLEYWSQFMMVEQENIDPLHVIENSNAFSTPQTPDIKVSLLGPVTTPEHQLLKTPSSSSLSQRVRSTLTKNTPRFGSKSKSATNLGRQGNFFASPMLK
# [13] = biological target: Genome polyprotein (dengue virus type 2, UniProt P29990); assay: flavivirus cap methylation enzyme inhibition – biochemical, confirmation dose response, primary screen (AID 588689); type: functional
# [14] = biological target: Polyadenylate-binding protein 1 (Homo sapiens, UniProt P11940); assay: blockers of PABP interaction with poly(A) – biochemical, fluorescence polarization, […] (AID 2014)
# [15] = biological target: Matrix metalloproteinase-14 (Homo sapiens, UniProt P50281); assay: Dose Response confirmation of uHTS hits for a small molecule inhibitors of MT1-MMP activation in a fluorescence assay set 1.; type: functional
# [16] = viability loss in HEK293 kidney cells – cell-based, cherry-picks, set 5, cytotoxicity control, dose response (AID 1053117); type: functional
# [17] = blockers of FN fibrillogenesis by fibroblasts – AH1F cells, Alexa488-FN fluorescence, cherry-picks, dose response (AID 1035475); type: functional, cell-based
# [18] = biological target: Protein Wnt-3a (Mus musculus, UniProt P27467); assay: SAR analysis of small molecule antagonists of Gli-SUFU in a Wnt3a luminescent reporter assay.; type: functional
# [19] = general mammalian cell viability loss – inhibitor set, cherry-pick, set 2, cytotoxicity control for miR-122 modulator project, dose response (AID 720697); type: functional, cell-based
# T1 sequence (Q79MP6 whole entry): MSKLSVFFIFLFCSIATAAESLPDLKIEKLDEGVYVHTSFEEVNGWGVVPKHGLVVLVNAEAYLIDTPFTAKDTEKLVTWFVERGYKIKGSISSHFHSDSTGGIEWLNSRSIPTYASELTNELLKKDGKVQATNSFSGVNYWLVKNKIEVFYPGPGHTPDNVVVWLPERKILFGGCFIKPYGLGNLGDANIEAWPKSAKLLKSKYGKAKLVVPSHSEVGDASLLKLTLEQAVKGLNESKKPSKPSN
# Sequence of Protein Wnt-3a (P27467 whole entry): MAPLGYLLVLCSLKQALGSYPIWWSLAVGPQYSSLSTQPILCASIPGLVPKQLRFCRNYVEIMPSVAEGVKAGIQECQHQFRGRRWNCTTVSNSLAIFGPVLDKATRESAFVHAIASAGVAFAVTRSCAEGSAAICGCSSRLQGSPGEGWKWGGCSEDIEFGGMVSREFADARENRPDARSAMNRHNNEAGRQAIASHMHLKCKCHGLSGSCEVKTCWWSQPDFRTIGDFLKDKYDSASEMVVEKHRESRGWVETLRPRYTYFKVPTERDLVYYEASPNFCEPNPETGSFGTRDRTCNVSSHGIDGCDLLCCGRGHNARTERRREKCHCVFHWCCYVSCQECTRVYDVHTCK
# Sequence of Beta-lactamase (Salmonella choleraesuis (strain SC-B67), UniProt Q5J463) (Q5J463 whole entry): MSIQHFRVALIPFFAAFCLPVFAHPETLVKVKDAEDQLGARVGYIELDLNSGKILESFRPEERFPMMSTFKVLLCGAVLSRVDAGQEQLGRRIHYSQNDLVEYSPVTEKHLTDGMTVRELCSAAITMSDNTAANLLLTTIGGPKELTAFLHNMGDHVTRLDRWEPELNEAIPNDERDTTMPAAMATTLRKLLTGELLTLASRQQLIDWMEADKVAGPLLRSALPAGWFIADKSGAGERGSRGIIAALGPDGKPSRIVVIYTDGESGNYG
# Sequence of Histone-lysine N-methyltransferase NSD2 (O96028 whole entry): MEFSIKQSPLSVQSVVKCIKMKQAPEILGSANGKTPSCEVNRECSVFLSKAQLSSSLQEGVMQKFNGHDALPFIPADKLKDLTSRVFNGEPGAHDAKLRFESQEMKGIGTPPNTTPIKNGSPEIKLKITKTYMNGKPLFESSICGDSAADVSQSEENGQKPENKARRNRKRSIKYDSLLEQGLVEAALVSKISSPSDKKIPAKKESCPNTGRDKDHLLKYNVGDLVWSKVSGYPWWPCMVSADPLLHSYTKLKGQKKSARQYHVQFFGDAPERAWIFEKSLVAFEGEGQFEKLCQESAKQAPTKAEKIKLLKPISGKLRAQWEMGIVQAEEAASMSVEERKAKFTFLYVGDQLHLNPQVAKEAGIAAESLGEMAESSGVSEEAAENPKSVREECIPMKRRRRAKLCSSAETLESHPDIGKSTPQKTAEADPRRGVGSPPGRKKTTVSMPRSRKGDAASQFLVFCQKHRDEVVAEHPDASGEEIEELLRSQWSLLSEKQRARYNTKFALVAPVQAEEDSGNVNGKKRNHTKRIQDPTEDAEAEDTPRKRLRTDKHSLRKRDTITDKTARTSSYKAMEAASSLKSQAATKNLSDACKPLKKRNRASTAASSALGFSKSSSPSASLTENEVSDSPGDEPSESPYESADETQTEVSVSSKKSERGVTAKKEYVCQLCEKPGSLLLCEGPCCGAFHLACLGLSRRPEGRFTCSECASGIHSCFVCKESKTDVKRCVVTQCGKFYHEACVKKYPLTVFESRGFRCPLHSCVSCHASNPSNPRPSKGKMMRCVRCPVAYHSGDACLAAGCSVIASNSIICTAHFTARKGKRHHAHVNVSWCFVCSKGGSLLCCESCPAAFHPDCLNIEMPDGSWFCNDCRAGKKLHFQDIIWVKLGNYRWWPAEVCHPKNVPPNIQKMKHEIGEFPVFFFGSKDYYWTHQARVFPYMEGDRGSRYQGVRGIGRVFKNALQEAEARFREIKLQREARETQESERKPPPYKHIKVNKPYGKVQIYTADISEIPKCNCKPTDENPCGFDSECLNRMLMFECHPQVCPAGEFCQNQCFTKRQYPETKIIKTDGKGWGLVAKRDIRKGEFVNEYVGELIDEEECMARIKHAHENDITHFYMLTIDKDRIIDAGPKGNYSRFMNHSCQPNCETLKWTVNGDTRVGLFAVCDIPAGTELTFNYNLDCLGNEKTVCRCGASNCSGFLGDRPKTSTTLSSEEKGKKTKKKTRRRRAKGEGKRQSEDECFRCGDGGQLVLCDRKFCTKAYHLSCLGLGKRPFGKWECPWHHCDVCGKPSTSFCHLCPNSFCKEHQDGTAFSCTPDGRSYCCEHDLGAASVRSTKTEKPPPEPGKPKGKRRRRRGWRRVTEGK
# Sequence of Genome polyprotein (P29990 2492-3391 limits assumed): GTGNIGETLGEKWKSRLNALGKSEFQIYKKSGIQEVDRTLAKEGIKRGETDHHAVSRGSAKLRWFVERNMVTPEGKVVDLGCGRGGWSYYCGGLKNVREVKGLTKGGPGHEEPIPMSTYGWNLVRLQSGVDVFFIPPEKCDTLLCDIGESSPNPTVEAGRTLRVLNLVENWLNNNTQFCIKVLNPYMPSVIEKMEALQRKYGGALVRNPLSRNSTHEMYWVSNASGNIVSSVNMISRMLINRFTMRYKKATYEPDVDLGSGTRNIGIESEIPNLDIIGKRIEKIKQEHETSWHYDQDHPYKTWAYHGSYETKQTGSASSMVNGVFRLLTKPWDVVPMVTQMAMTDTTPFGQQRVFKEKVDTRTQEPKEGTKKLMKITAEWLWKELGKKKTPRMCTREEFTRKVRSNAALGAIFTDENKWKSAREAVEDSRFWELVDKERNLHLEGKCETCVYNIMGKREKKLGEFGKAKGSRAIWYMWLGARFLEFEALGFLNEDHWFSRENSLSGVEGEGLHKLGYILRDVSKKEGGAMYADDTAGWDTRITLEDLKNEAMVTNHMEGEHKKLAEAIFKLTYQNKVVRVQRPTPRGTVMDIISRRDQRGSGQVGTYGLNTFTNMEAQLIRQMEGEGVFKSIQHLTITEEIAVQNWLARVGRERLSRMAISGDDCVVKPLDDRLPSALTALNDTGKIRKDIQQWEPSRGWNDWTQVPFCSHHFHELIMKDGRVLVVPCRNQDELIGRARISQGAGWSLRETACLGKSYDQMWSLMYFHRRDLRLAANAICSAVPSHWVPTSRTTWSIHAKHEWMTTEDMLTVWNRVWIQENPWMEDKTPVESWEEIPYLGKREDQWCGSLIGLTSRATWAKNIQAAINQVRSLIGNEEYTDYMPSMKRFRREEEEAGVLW
# Sequence of Polyadenylate-binding protein 1 (P11940 whole entry): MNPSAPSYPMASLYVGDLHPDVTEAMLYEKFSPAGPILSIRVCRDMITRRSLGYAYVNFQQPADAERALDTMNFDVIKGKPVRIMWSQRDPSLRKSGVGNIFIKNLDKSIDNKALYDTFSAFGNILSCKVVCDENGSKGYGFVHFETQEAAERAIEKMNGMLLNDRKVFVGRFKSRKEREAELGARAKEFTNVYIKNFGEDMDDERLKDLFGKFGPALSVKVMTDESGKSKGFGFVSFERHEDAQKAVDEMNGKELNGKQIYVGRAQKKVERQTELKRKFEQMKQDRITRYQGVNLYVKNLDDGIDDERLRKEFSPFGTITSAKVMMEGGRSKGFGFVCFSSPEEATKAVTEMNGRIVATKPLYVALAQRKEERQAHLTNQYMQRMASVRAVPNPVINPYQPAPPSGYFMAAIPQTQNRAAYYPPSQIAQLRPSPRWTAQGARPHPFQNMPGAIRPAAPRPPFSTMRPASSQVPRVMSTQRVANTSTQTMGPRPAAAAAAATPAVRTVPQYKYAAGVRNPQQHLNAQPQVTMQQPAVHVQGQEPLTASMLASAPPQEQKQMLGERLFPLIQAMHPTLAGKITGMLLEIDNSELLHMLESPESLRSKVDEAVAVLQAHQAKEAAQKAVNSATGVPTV
# Sequence of Nonstructural protein 1 (Q194T2 whole entry): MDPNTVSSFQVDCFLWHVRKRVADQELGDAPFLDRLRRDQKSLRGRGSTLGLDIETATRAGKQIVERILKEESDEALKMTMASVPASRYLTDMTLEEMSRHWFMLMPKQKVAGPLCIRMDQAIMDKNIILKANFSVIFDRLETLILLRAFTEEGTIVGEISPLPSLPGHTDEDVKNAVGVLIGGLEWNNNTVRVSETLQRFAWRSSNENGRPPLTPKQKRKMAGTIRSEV
# Sequence of Tyrosyl-DNA phosphodiesterase 2 (O95551 whole entry): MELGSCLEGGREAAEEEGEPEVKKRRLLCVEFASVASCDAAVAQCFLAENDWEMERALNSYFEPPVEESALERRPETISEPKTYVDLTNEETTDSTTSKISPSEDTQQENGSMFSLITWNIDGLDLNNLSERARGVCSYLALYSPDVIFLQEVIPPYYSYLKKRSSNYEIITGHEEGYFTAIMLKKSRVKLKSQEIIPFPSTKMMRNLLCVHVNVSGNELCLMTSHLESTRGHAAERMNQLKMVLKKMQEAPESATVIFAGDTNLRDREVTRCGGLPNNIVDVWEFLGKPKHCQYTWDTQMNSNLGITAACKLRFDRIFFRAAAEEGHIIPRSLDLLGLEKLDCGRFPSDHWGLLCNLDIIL
smiles,measurement,setting,value
CCCCc1cc(=O)oc2c3c(cc(OCC(=O)N4CCC[C@H]4C(=O)O)c12)OC(C)(C)CC3,IC50,[1],> 59.6 µM (inactive)
same,IC50,[2],> 59.6 µM (inactive)
same,IC50,[3],> 59.6 µM (inactive)
CCC(=O)N(C)C[C@H]1Oc2cc(C#Cc3ccccc3)ccc2S(=O)(=O)N([C@H](C)CO)C[C@H]1C,AC50,[4],30.6 µM (active)
same,AC50,[5],10.1 µM (active)
O=C1C=C(O)c2nc(O)ccc2C1=O,AC50,[6],13.1 µM (active)
same,IC50,[7],80 µM (inactive)
CC1=C/C(=C(/c2cc(C)c(O)c(Br)c2)c2ccccc2S(=O)(=O)O)C=C(Br)C1=O,IC50,[8],34.3 µM (active)
same,CC50,[9],100 µM (active)
same,IC50,[10],8.28 µM (active)
same,IC50,[11],16.3 µM (active)
same,IC50,[12],63.5 µM (active)
same,IC50,[13],38 µM (active)
same,IC50,[14],6.81 µM (active)
same,IC50,[15],18.5 µM (active)
CN1c2ccc(-c3ccccc3)cc2[C@H]2[C@H](CCN2C(=O)CN2CCOCC2)[C@@H]1CO,AC50,[16],> 52 µM (inactive)
same,AC50,[17],> 70 µM (inactive)
CN(C)c1cc(NC(=O)c2ccccc2F)ncn1,IC50,[18],> 21.8 µM (inactive)
CN(C)C(=O)C[C@@H]1CC[C@@H]2[C@@H](COc3ccc(NC(=O)C4CC4)cc3C(=O)N2C)O1,AC50,[19],9.22 µM (active)
